Several values for one entry are separate records, joined by “and”; a condition that tells them apart may be missing. Identical values can stand only once. ± gives the expanded uncertainty stated by the source.
Columns and labels:
[1] = refractive index (Na D-line) (dimensionless); conditions: 101.33 kPa, Liquid, Standard Abbe refractometry
[2] = 101.33 kPa, Liquid; for speed of sound: Sing-around technique in a fixed-path interferometer; for mass density: Vibrating tube method
[3] = refractive index (Na D-line) (dimensionless); xn = mol fraction of the nth substance listed; conditions: 101 kPa, Liquid, Standard Abbe refractometry, x2 = 0
[4] = xn = mol fraction of the nth substance listed; conditions: 101 kPa, Liquid, x2 = 0; for speed of sound: Sing-around technique in a fixed-path interferometer; for mass density: Vibrating tube method

CCCCCCn1cc[n+](C)c1.F[B-](F)(F)F [1-hexyl-3-methylimidazolium tetrafluoroborate]
Conditions	mass density, [2] [kg/m3]	refractive index, [1]	speed of sound, [2] [m/s]
293.15 K	1148.76 ± 1.1	1.43308 ± 0.00053	1509.3 ± 2.3
298.15 K	1145.11 ± 1.1	1.43167 ± 0.00053	1496.7 ± 2.3
303.15 K	1141.47 ± 1.1	1.43029 ± 0.00053	1484.3 ± 2.3
308.15 K	1137.71 ± 1.1	1.4289 ± 0.00053	1472 ± 2.3
313.15 K	1134.09 ± 1.1	1.42752 ± 0.00053	1459.8 ± 2.3
318.15 K	1130.49 ± 1.1	1.42612 ± 0.00053	1447.7 ± 2.3
323.15 K	1126.89 ± 1.1	1.42474 ± 0.00053	1435.7 ± 2.3

CCCCCCCC[n+]1ccn(C)c1.F[B-](F)(F)F [1-methyl-3-octylimidazolium tetrafluoroborate]
Conditions	mass density, [2] [kg/m3]	refractive index, [1]	speed of sound, [2] [m/s]
293.15 K	1100.59 ± 1.1	1.43389 ± 0.0017	1495.5 ± 2.3
298.15 K	1097.61 ± 1	1.43296 ± 0.0017	1481.1 ± 2.3
303.15 K	1094.07 ± 1	1.43192 ± 0.0017	1467.3 ± 2.3
308.15 K	1090.9 ± 1	1.42939 ± 0.0017	1453.9 ± 2.3
313.15 K	1087.41 ± 1	1.42772 ± 0.0017	1440.9 ± 2.3
318.15 K	1084.17 ± 1	1.42684 ± 0.0017	1428.2 ± 2.3
323.15 K	1080.75 ± 1	1.42696 ± 0.0017	1414.7 ± 2.3

C1COCCO1 [1,4-dioxane]
Conditions	mass density, [2] [kg/m3]	refractive index, [1]	speed of sound, [2] [m/s]
293.15 K	1033.5 ± 0.12	1.42215 ± 0.00037	1367.2 ± 1.2
298.15 K	1027.85 ± 0.12	1.41967 ± 0.00037	1345 ± 1.2
303.15 K	1022.19 ± 0.12	1.41725 ± 0.00037	1323 ± 1.2
308.15 K	1016.52 ± 0.12	1.4148 ± 0.00037	1301.1 ± 1.2
313.15 K	1010.83 ± 0.12	1.41236 ± 0.00037	1279.4 ± 1.2
318.15 K	1005.12 ± 0.12	1.40993 ± 0.00037	1257.8 ± 1.2
323.15 K	999.4 ± 0.12	1.40749 ± 0.00037	1236.3 ± 1.2

C1CCOC1 [tetrahydrofuran] + CCCCCCCC[n+]1ccn(C)c1.F[B-](F)(F)F
Conditions	mass density, 298.15 K [kg/m3]	mass density, 308.15 K [kg/m3]	mass density, 318.15 K [kg/m3]	refractive index, 298.15 K	refractive index, 308.15 K	refractive index, 318.15 K	speed of sound, 298.15 K [m/s]	speed of sound, 308.15 K [m/s]	speed of sound, 318.15 K [m/s]
[3]	–	–	–	1.4042 ± 0.00039	1.39885 ± 0.00039	1.39349 ± 0.00039	–	–	–
[4]	882.209 ± 0.17	871.159 ± 0.17	859.955 ± 0.18	–	–	–	1280.5 ± 1.4	1232.5 ± 1.4	1185.2 ± 1.4

C1CCOC1 [tetrahydrofuran]
Conditions	mass density, [2]	refractive index, [1]	speed of sound, [2] [m/s]
293.15 K	888.69 ± 0.17 kg/m3	1.40696 ± 0.00039	1304.6 ± 1.4
298.15 K	882.21 ± 0.17 kg/m3 and 882.209 ± 0.17 kg/m3	1.4042 ± 0.00039	1280.5 ± 1.4
303.15 K	877.7 ± 0.17 kg/m3	1.40157 ± 0.00039	1256.4 ± 1.4
308.15 K	872.16 ± 0.17 kg/m3 and 871.159 ± 0.17 kg/m3	1.39885 ± 0.00039	1232.5 ± 1.4
313.15 K	866.58 ± 0.18 kg/m3	1.39623 ± 0.00039	1208.8 ± 1.4
318.15 K	860.96 ± 0.18 kg/m3 and 859.955 ± 0.18 kg/m3	1.39349 ± 0.00039	1185.2 ± 1.4
323.15 K	855.29 ± 0.18 kg/m3	1.39083 ± 0.00039	1161.7 ± 1.3

C1COCCO1 [1,4-dioxane] + CCCCCCCC[n+]1ccn(C)c1.F[B-](F)(F)F
Conditions	mass density, 298.15 K [kg/m3]	mass density, 308.15 K [kg/m3]	mass density, 318.15 K [kg/m3]	refractive index, 298.15 K	refractive index, 308.15 K	refractive index, 318.15 K	speed of sound, 298.15 K [m/s]	speed of sound, 308.15 K [m/s]	speed of sound, 318.15 K [m/s]
[3]	–	–	–	1.41967 ± 0.00037	1.4148 ± 0.00037	1.40993 ± 0.00037	–	–	–
[4]	1027.85 ± 0.12	1016.52 ± 0.12	1005.12 ± 0.12	–	–	–	1345 ± 1.2	1301.1 ± 1.2	1257.8 ± 1.2

C1CCOC1 [tetrahydrofuran] + CCCCCCn1cc[n+](C)c1.F[B-](F)(F)F
Conditions	mass density, 298.15 K [kg/m3]	mass density, 308.15 K [kg/m3]	mass density, 318.15 K [kg/m3]	refractive index, 298.15 K	refractive index, 308.15 K	refractive index, 318.15 K	speed of sound, 298.15 K [m/s]	speed of sound, 308.15 K [m/s]	speed of sound, 318.15 K [m/s]
[3]	–	–	–	1.4042 ± 0.00039	1.39885 ± 0.00039	1.39349 ± 0.00039	–	–	–
[4]	882.209 ± 0.17	871.159 ± 0.17	859.955 ± 0.18	–	–	–	1280.5 ± 1.4	1232.5 ± 1.4	1185.2 ± 1.4

C1COCCO1 [1,4-dioxane] + CCCCCCn1cc[n+](C)c1.F[B-](F)(F)F
Conditions	mass density, 298.15 K [kg/m3]	mass density, 308.15 K [kg/m3]	mass density, 318.15 K [kg/m3]	refractive index, 298.15 K	refractive index, 308.15 K	refractive index, 318.15 K	speed of sound, 298.15 K [m/s]	speed of sound, 308.15 K [m/s]	speed of sound, 318.15 K [m/s]
[3]	–	–	–	1.41967 ± 0.00037	1.4148 ± 0.00037	1.40993 ± 0.00037	–	–	–
[4]	1027.85 ± 0.12	1016.52 ± 0.12	1005.12 ± 0.12	–	–	–	1345 ± 1.2	1301.1 ± 1.2	1257.8 ± 1.2
